According to ChEMBL document CHEMBL5385858, “Identification of novel Pyrrolo[2,3-d]Pyrimidine-based KRAS G12C inhibitors with anticancer effects” (Eur J Med Chem, 2023):
Activity calls are given as the source filed them. No cut-off for these calls is given here.

Assays:
[1] = test system: GTPase KRas (Homo sapiens), P01116 [G12C]; experiment: Inhibition of KRAS G12C mutant in human NCI-H358 cells assessed as decrease in ERK phosphorylation upto 5 uM by Western blot analysis; type: cell-based; conditions: time 2-72 hrs, TDE = time-dependent effect
Chain of GTPase KRas (Homo sapiens), P01116 [G12C] (P01116 whole entry G12C): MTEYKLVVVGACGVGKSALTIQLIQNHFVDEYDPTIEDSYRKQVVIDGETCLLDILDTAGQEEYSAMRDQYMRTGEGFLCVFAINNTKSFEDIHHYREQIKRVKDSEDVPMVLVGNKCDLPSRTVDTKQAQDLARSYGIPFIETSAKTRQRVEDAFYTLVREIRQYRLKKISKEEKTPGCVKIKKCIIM

[2] = Toxicity in BALB/c-nu/nu mouse xenografted with human NCI-H358 cells assessed as morphological damage in kidney at 10 to 30 mg/kg, po qd treated for 20 days; type: organism-based; conditions: in vivo, 480 h, dose 10-30 mg/kg, time 20 day
NCI-H358 [3] = experiment: Induction of apoptosis in human NCI-H358 cells assessed as necrotic cells at 0.3 uM incubated for 24 hrs by Annexin V-FITC/PI staining based flow cytometry (reference value: 1.88 %); type: functional
NCI-H358 [4] = experiment: Induction of apoptosis in human NCI-H358 cells assessed as early apoptotic cells at 0.1 uM incubated for 24 hrs by Annexin V-FITC/PI staining based flow cytometry (reference value: 5.4 %); type: functional
NCI-H358 [5] = experiment: Induction of apoptosis in human NCI-H358 cells assessed as increase in cleaved caspase-7 level upto 5 uM incubated for 24 hrs by Western blot analysis; type: functional, cell-based
NCI-H358 [6] = experiment: Antiproliferative activity against human NCI-H358 cells assessed as inhibition of cell proliferation at 0.03 uM incubated for 14 days by crystal violet staining based colony formation assay; type: functional; conditions: time 14.0 day
NCI-H358 [7] = experiment: Induction of apoptosis in human NCI-H358 cells assessed as early apoptotic cells at 0.5 uM incubated for 24 hrs by Annexin V-FITC/PI staining based flow cytometry (reference value: 5.4 %); type: functional
[8] = test system: GTPase KRas (Homo sapiens), P01116 [G12C]; experiment: Inhibition of KRAS G12C mutant in human NCI-H358 cells assessed as decrease in ERK phosphorylation at 0.1 uM incubated for 4 to 24 hrs by Western blot analysis; type: cell-based; conditions: time 4-24 hrs
NCI-H358 [9] = experiment: Induction of apoptosis in human NCI-H358 cells assessed as late apoptotic cells at 0.5 uM incubated for 24 hrs by Annexin V-FITC/PI staining based flow cytometry (reference value: 1.32 %); type: functional
[10] = Toxicity in BALB/c-nu/nu mouse xenografted with human NCI-H358 cells assessed as histological change in heart at 10 to 30 mg/kg, po qd treated for 20 days by H and E staining based analysis; type: organism-based; conditions: in vivo, 480 h, dose 10-30 mg/kg, time 20 day
[11] = AUC (0 to infinity) in ICR mouse at 3 mg/kg, iv measured for 24 hrs by LC-MS/MS analysis; type: ADME, organism-based; set-up: dose 3 mg/kg, time 24 hrs, route iv; conditions: in vivo
NCI-H358 [12] = experiment: Induction of apoptosis in human NCI-H358 cells assessed as viable cells at 0.5 uM incubated for 24 hrs by Annexin V-FITC/PI staining based flow cytometry (reference value: 91.4 %); type: functional; conditions: read-out: Activity
[13] = Toxicity in BALB/c-nu/nu mouse xenografted with human NCI-H358 cells assessed as body weight loss at 10 to 30 mg/kg, po qd treated for 20 days; type: organism-based; conditions: in vivo, 480 h, dose 10-30 mg/kg, time 20 day
[14] = Half life in ICR mouse at 3 mg/kg, iv measured for 24 hrs by LC-MS/MS analysis; type: ADME, organism-based; conditions: in vivo
NCI-H358 [15] = experiment: Induction of apoptosis in human NCI-H358 cells assessed as early apoptotic cells at 1 uM incubated for 24 hrs by Annexin V-FITC/PI staining based flow cytometry (reference value: 5.4 %); type: functional
[16] = Clearance in ICR mouse at 3 mg/kg, iv measured for 24 hrs by LC-MS/MS analysis; type: ADME, organism-based; conditions: in vivo
[17] = AUC (0 to infinity) in ICR mouse at 30 mg/kg, po measured for 24 hrs by LC-MS/MS analysis; type: ADME, organism-based; set-up: time 24 hrs, dose 30 mg/kg, route po; conditions: in vivo
NCI-H358 [18] = experiment: Induction of apoptosis in human NCI-H358 cells assessed as necrotic cells at 1 uM incubated for 24 hrs by Annexin V-FITC/PI staining based flow cytometry (reference value: 1.88 %); type: functional
[19] = Toxicity in BALB/c-nu/nu mouse xenografted with human NCI-H358 cells assessed as histological change in kidney at 10 to 30 mg/kg, po qd treated for 20 days by H and E staining based analysis; type: organism-based; conditions: in vivo, 480 h, dose 10-30 mg/kg, time 20 day
NCI-H358 [20] = experiment: Induction of apoptosis in human NCI-H358 cells assessed as early apoptotic cells at 0.3 uM incubated for 24 hrs by Annexin V-FITC/PI staining based flow cytometry (reference value: 5.4 %); type: functional
[21] = Tmax in ICR mouse at 30 mg/kg, po measured for 24 hrs by LC-MS/MS analysis; type: ADME, organism-based; conditions: in vivo
NCI-H358 [22] = experiment: Induction of apoptosis in human NCI-H358 cells assessed as necrotic cells at 0.1 uM incubated for 24 hrs by Annexin V-FITC/PI staining based flow cytometry (reference value: 1.88 %); type: functional
NCI-H358 [23] = experiment: Induction of apoptosis in human NCI-H358 cells assessed as late apoptotic cells at 0.3 uM incubated for 24 hrs by Annexin V-FITC/PI staining based flow cytometry (reference value: 1.32 %); type: functional
NCI-H358 [24] = experiment: Induction of apoptosis in human NCI-H358 cells assessed as viable cells at 1 uM incubated for 24 hrs by Annexin V-FITC/PI staining based flow cytometry (reference value: 91.4 %); type: functional; conditions: read-out: Activity
[25] = Toxicity in BALB/c-nu/nu mouse xenografted with human NCI-H358 cells assessed as histological change in liver at 10 to 30 mg/kg, po qd treated for 20 days by H and E staining based analysis; type: organism-based; conditions: in vivo, 480 h, dose 10-30 mg/kg, time 20 day
[26] = AUC (0 to t) in ICR mouse at 3 mg/kg, iv measured for 24 hrs by LC-MS/MS analysis; type: ADME, organism-based; set-up: dose 3 mg/kg, time 24 hrs, route iv; conditions: in vivo
[27] = test system: GTPase KRas (Homo sapiens), P01116 [G12C]; experiment: Inhibition of KRAS G12C mutant RBD in human NCI-H358 cells incubated for 24 hrs in presence of GTP by pull-down assay; type: cell-based; conditions: dose <= 1.0 µM
NCI-H358 [28] = experiment: In vivo inhibition of KRAS G12C mutant in human NCI-H358 cells xenografted in BALB/c-nu/nu mouse assessed as decrease in AKT phosphorylation at 10 to 30 mg/kg, po qd treated for 20 days by Western blot analysis; type: functional, organism-based; conditions: dose 10-30 mg/kg, time 20.0 day
NCI-H358 [29] = experiment: Induction of apoptosis in human NCI-H358 cells assessed as necrotic cells at 0.5 uM incubated for 24 hrs by Annexin V-FITC/PI staining based flow cytometry (reference value: 1.88 %); type: functional
NCI-H358 [30] = experiment: Induction of apoptosis in human NCI-H358 cells assessed as late apoptotic cells at 1 uM incubated for 24 hrs by Annexin V-FITC/PI staining based flow cytometry (reference value: 1.32 %); type: functional
[31] = AUC (0 to t) in ICR mouse at 30 mg/kg, po measured for 24 hrs by LC-MS/MS analysis; type: ADME, organism-based; set-up: dose 30 mg/kg, time 24 hrs, route po; conditions: in vivo
[32] = Toxicity in BALB/c-nu/nu mouse xenografted with human NCI-H358 cells assessed as histological change in lung at 10 to 30 mg/kg, po qd treated for 20 days by H and E staining based analysis; type: organism-based; conditions: in vivo, 480 h, dose 10-30 mg/kg, time 20 day
NCI-H358 [33] = experiment: Induction of apoptosis in human NCI-H358 cells assessed as increase in cleaved PARP level upto 5 uM incubated for 24 hrs by Western blot analysis; type: functional, cell-based

C=CC(=O)N1CCN(c2nc(OC[C@@]34CCCN3C[C@H](F)C4)nc3c2cc(-c2cccc4cccc(C)c24)n3C)C[C@@H]1CC#N
inhibition [1]: Tde | Activity [2]: Non-Toxic | Activity (NCI-H358 [3]): 1.06% | Activity (NCI-H358 [4]): 10.5% | Activity (NCI-H358 [5]): Active | inhibition (NCI-H358 [6]): Active | Activity (NCI-H358 [7]): 14% | inhibition [8]: Active | Activity (NCI-H358 [9]): 6.26% | Activity [10]: Non-Toxic | AUC(0-inf) [11]: 804 ng·h/mL | viability at 0.5 µM (NCI-H358 [12]): 79% | Activity [13]: Non-Toxic | half-life [14]: 55.8 min | Activity (NCI-H358 [15]): 22.4% | clearance [16]: 62.3 mL/min/kg | AUC(0-inf) [17]: 835 ng·h/mL | Activity (NCI-H358 [18]): 1.03% | Activity [19]: Non-Toxic | Activity (NCI-H358 [20]): 11.8% | Tmax [21]: 4.98 min | Activity (NCI-H358 [22]): 1.17% | Activity (NCI-H358 [23]): 3.93% | viability at 1 µM (NCI-H358 [24]): 71.2% | Activity [25]: Non-Toxic | AUC(0-t) at 24 h [26]: 801 ng·h/mL | inhibition [27]: Dose-Dependent Effect | inhibition (NCI-H358 [28]): Active | Activity (NCI-H358 [29]): 0.8% | Activity (NCI-H358 [30]): 5.34% | AUC(0-t) at 24 h [31]: 600 ng·h/mL | Activity [32]: Non-Toxic | Activity (NCI-H358 [33]): Active
